Laboratory results as given in ChEMBL document CHEMBL1136157, “Synthesis of 3a,4-dihydro-3H-[1]benzopyrano[4,3-c]isoxazoles, displaying combined 5-HT uptake inhibiting and alpha(2)-adrenoceptor antagonistic activities: a novel series of potential antidepressants” (Bioorg Med Chem Lett, 2003).

Molecular target: Sodium-dependent serotonin transporter (Homo sapiens) (UniProt P31645)
Assay: In vitro binding affinity towards human serotonin transporter

Sodium-dependent serotonin transporter (Homo sapiens), sequence (P31645 whole entry, looked up): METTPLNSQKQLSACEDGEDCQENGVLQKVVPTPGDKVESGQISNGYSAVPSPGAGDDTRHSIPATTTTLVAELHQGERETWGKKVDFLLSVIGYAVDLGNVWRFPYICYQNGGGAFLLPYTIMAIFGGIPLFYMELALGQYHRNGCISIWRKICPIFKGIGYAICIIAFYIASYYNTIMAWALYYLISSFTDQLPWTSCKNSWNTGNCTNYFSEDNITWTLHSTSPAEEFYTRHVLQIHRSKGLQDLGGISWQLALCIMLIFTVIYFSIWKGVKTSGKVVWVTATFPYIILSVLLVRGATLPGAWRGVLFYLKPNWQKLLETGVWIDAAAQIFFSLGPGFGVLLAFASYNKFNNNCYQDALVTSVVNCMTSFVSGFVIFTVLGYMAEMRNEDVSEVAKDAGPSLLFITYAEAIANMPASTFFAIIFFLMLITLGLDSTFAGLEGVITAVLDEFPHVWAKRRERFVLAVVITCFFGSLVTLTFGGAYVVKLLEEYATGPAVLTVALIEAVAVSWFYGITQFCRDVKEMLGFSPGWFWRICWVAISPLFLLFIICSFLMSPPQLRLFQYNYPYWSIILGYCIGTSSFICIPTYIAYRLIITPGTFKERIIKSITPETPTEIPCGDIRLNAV

SMILES | Ki
COc1cc2c(cc1OC)C1=NOC(CN3CCN(C/C=C(\C)c4ccccc4)CC3)C1CO2 (centres undefined) | 10 nM
COc1cc2c(cc1OC)C1=NOC(CN3CCN(CC4=Cc5ccccc5C4)CC3)C1CO2 (centres undefined) | 4.1 nM
COc1cc2c(cc1OC)C1=NOC(CN3CCN(CCC(=O)c4ccccc4)CC3)C1CO2 (centres undefined) | 123 nM
COc1cc2c(cc1OC)C1=NO[C@@H](CN3CCN(C/C=C\c4ccccc4)CC3)[C@@H]1CO2 | 35 nM
COc1ccc2c(c1)C1=NOC(CN3CCN(C/C=C/c4ccccc4)CC3)C1CO2 (centres undefined) | 14 nM
COc1ccc2c(c1)OCC1C2=NOC1CN1CCN(C/C=C/c2ccccc2)CC1 (centres undefined) | 19 nM
COc1cc2c(cc1OC)C1=NOC(CN3CCN(CCCc4ccccc4)CC3)C1CO2 (centres undefined) | 10 nM
COc1cc2c(cc1OC)C1=NOC(CN3CCN(Cc4ccccc4)CC3)C1CO2 (centres undefined) | 158 nM
COc1cc2c(cc1OC)C1=NOC(CN3CCN(Cc4ccc5ncccc5c4)CC3)C1CO2 (centres undefined) | 8.1 nM
COc1cc2c(cc1OC)C1=NOC(CN3CCN(Cc4cccc5ccccc45)CC3)C1CO2 (centres undefined) | 3.9 nM
COc1cc2c(cc1OC)C1=NOC(CN3CCN(Cc4cnc5ccccc5c4)CC3)C1CO2 (centres undefined) | 14 nM
COc1cc2c(cc1OC)C1=NOC(CN3CCN(CCc4ccccc4)CC3)C1CO2 (centres undefined) | 199 nM
COc1cc2c(cc1OC)C1=NOC(CN3CCN(C/C=C/c4ccccc4)CC3)C1CO2 (centres undefined) | 8.3 nM
COc1cc2c(cc1OC)C1=NOC(CN3CCN(Cc4csc5ccccc45)CC3)C1CO2 (centres undefined) | 7.2 nM
COc1cc2c(cc1OC)C1=NOC(CN3CCN(Cc4cc5ccccc5s4)CC3)C1CO2 (centres undefined) | 5 nM
COc1cc2c(cc1OC)C1=NO[C@@H](CN3CCN(C/C=C/c4ccccc4)CC3)[C@@H]1CO2 (stereo in doubt; (+)5) | 1.2 nM
COc1cc2c(cc1OC)C1=NO[C@@H](CN3CCN(C/C=C(\C)c4ccccc4)CC3)[C@@H]1CO2 (stereo in doubt; (+)15g) | 4.5 nM
COc1cc2c(cc1OC)C1=NO[C@@H](CN3CCN(C/C=C/c4ccccc4)CC3)[C@@H]1CO2 (stereo in doubt; (-)5) | 3.4 nM
COc1cc2c(cc1OC)C1=NO[C@@H](CN3CCN(C/C=C(\C)c4ccccc4)CC3)[C@@H]1CO2 (stereo in doubt; (-)15g) | 10 nM
